The structures appear in SMILES notation.

For orientation: IC50 means the concentration that gives 50% inhibition.

Holding throughout (format): cell-based
Test [1] has as its target T1, PSEN2-APH1A γ-secretase complex (Homo sapiens, UniProt P49810+Q92542+Q96BI3+Q9NZ42).
T1 construct: expressed in transfected cells; host or cells: Psen1/2 double KO/Aph1ABC triple KO MEFs, pMSCV retroviral PSEN-IRES-APH1
Briefly: Aβ40 secretion by MEF cell line expressing only PSEN2-APH1A γ-secretase (APP-C99-GFP reporter). To be noted: 8 h, Beerse site unless otherwise indicated, read-out: IC50, Aβ40 peptides. The text has this: (§1) Mouse embryonic fibroblast (MEF) cells deficient for the Psen and Aph1 genes (Psen1/2^−/−, Aph1ABC^−/−) were reconstituted with human PSEN1 or PSEN2 and with human APH1A or APH1B to generate four independent cell lines, each constitutively expressing exclusively one type of γ-secretase complex (Fig. S1A) ([19]). A human APP-C99-GFP reporter was introduced to enable the measurement of Aβ peptides in the conditioned media of the cells to monitor γ-secretase activity. The assay was established in a 96-well format.
Conditional Psen1/2 double KO mice were crossed with conditional Aph1ABC triple KO mice ([29], [52], [58], [59]). At embryonic day 7.5, embryos were dissected and dissociated, and cells were plated in the presence of Dulbecco’s modified Eagle’s medium (DMEM)/F12 50% fetal calf serum (FCS) (Invitrogen). Primary MEFs were immortalized by transduction with LargeT antigen. Psen1/2 double KO/Aph1ABC triple KO MEFs were generated by transduction with a Cre-GFP–expressing adenoviral vector, and GFP-positive MEFs were sorted by fluorescence-activated cell sorting analysis. Psen1/2 Aph1ABC-deficient MEFs were maintained in DMEM/f12 10% FCS. To rescue γ-secretase expression, Psen1/2 double KO/Aph1ABC triple KO MEFs were transduced using Murine Stem Cell Virus retroviral vector system (pMSCV) viral vectors (Clontech) containing the human coding sequences of the different PSEN and APH1 homologs and the zeocin selection marker. An Internal Ribosome Entry Site sequence was cloned between the coding sequences for PSEN and APH1 to ensure co-expression of both proteins. Stable transfected cell lines were selected using 500-μg/ml zeocin (Invitrogen). […]
The number of plated cells and incubation times were determined in respect to linearity of Aβ peptide secretion, the dynamic range of Aβ peptide quantification in the medium, and sensitivity to dimethylsulfoxide (DMSO). […] The cell viability was assessed using the CellTiter-Glo Luminescent assay (Promega) that measures ATP production. […]

The target of test [2] is T2, PSEN1-APH1B γ-secretase complex (Homo sapiens, UniProt P49768).
T2 construct: expressed in transfected cells; host or cells: Psen1/2 double KO/Aph1ABC triple KO MEFs, pMSCV retroviral PSEN-IRES-APH1
Briefly: Aβ40 secretion by MEF cell line expressing only PSEN1-APH1B γ-secretase (APP-C99-GFP reporter). To be noted: 8 h, Beerse site unless otherwise indicated, read-out: IC50, Aβ40 peptides.
Description: as §1
Conditional Psen1/2 double KO mice were crossed with conditional Aph1ABC triple KO mice ([29], [52], [58], [59]). At embryonic day 7.5, embryos were dissected and dissociated, and cells were plated in the presence of Dulbecco’s modified Eagle’s medium (DMEM)/F12 50% fetal calf serum (FCS) (Invitrogen). Primary MEFs were immortalized by transduction with LargeT antigen. Psen1/2 double KO/Aph1ABC triple KO MEFs were generated by transduction with a Cre-GFP–expressing adenoviral vector, and GFP-positive MEFs were sorted by fluorescence-activated cell sorting analysis. Psen1/2 Aph1ABC-deficient MEFs were maintained in DMEM/f12 10% FCS. To rescue γ-secretase expression, Psen1/2 double KO/Aph1ABC triple KO MEFs were transduced using Murine Stem Cell Virus retroviral vector system (pMSCV) viral vectors (Clontech) containing the human coding sequences of the different PSEN and APH1 homologs and the zeocin selection marker. An Internal Ribosome Entry Site sequence was cloned between the coding sequences for PSEN and APH1 to ensure co-expression of both proteins. Stable transfected cell lines were selected using 500-μg/ml zeocin (Invitrogen). Four different combinations were made: PSEN1 and APH1AL, PSEN1 and APH1B, PSEN2 and APH1AL, and PSEN2 and APH1B. These cell lines were transduced with pMSCV viral vectors (Clontech) expressing APP-C99-GFP-puromycin. After puromycin selection (5 μg/ml), GFP-positive cells were selected through FACS sorting. For the alanine mutagenesis experiment, pMSCV PSEN1-APH1A viral vectors were generated by using a long PCR-based QuikChange strategy (Stratagene). Stable cell lines without clonal selection were generated for each mutant as described above. All cell lines were regularly tested for the absence of mycoplasma and used for maximum 20 passages in culture.
The number of plated cells and incubation times were determined in respect to linearity of Aβ peptide secretion, the dynamic range of Aβ peptide quantification in the medium, and sensitivity to dimethylsulfoxide (DMSO). […] MEF cells were plated in DMEM F12 supplemented with 10% FCS at 10,000 cells per well in 96-well clear bottom plates in the late afternoon and cultured for 16 h at 37 °C, 5% CO2. In the morning of the second day, the medium was replaced with 60 μl of DMEM/F12 supplemented with 2% FCS, and GSI or DMSO (controls) were added. Compounds were tested in serial dilutions with concentrations ranging from […] to 0.1 nM with 3-fold changes. The final concentration of DMSO in all wells was 0.2%. Plates were put in the incubator again at 37 °C, 5% CO2. After 8 h, the culture media were collected, and 30 μl was used to measure Aβ40 peptides. The cell viability was assessed using the CellTiter-Glo Luminescent assay (Promega) that measures ATP production. All screens were performed at one site, and reported IC50 values throughout the manuscript are from this site (Beerse) unless otherwise indicated.
Standard 96-well SECTOR plates (MSD) were coated with 1.5 μg/ml anti-Aβ JRFcAβ40/28 capture antibody in a final volume of 50 μl of PBS 0.05% Tween 20.

The target in test [3] is T3, PSEN1 Y154A–APH1A γ-secretase complex (Homo sapiens, UniProt P49768+Q92542+Q96BI3+Q9NZ42, Y154A).
T3 construct: expressed in transfected cells; host or cells: Psen1/2 double KO/Aph1ABC triple KO MEFs, pools without clonal selection
Briefly: Aβ40 secretion, MEF cell pool restored with PSEN1 Y154A–APH1A. The note with it: PSEN1 Y154A (TM2)–APH1A cell pool; N = 3 to 4; mean (95% CI); decimal comma. As to the method:
(§2) We turned to experimental site–directed mutagenesis and selected a series of amino acids (Fig. 3) in the entrance channel for mutation to alanine. […] More importantly, they were all enzymatically active as shown by the secretion of Aβ40 in the supernatants of the cell cultures (Fig. 3B).
(§3) Conditional Psen1/2 double KO mice were crossed with conditional Aph1ABC triple KO mice ([29], [52], [58], [59]). At embryonic day 7.5, embryos were dissected and dissociated, and cells were plated in the presence of Dulbecco’s modified Eagle’s medium (DMEM)/F12 50% fetal calf serum (FCS) (Invitrogen). Primary MEFs were immortalized by transduction with LargeT antigen. Psen1/2 double KO/Aph1ABC triple KO MEFs were generated by transduction with a Cre-GFP–expressing adenoviral vector, and GFP-positive MEFs were sorted by fluorescence-activated cell sorting analysis. Psen1/2 Aph1ABC-deficient MEFs were maintained in DMEM/f12 10% FCS. To rescue γ-secretase expression, Psen1/2 double KO/Aph1ABC triple KO MEFs were transduced using Murine Stem Cell Virus retroviral vector system (pMSCV) viral vectors (Clontech) containing the human coding sequences of the different PSEN and APH1 homologs and the zeocin selection marker. An Internal Ribosome Entry Site sequence was cloned between the coding sequences for PSEN and APH1 to ensure co-expression of both proteins. Stable transfected cell lines were selected using 500-μg/ml zeocin (Invitrogen). Four different combinations were made: PSEN1 and APH1AL, PSEN1 and APH1B, PSEN2 and APH1AL, and PSEN2 and APH1B. These cell lines were transduced with pMSCV viral vectors (Clontech) expressing APP-C99-GFP-puromycin. […]
(§4) The number of plated cells and incubation times were determined in respect to linearity of Aβ peptide secretion, the dynamic range of Aβ peptide quantification in the medium, and sensitivity to dimethylsulfoxide (DMSO). […] The cell viability was assessed using the CellTiter-Glo Luminescent assay (Promega) that measures ATP production. […] We however measured five compounds at the Leuven site and noticed that absolute IC50 values were different (Fig. S2). […]

Test [4] has as its target T4, PSEN1 T147A–APH1A γ-secretase complex (Homo sapiens, UniProt P49768+Q92542+Q96BI3+Q9NZ42, T147A).
T4 construct: expressed in transfected cells; host or cells: Psen1/2 double KO/Aph1ABC triple KO MEFs, pools without clonal selection
Put plainly: Aβ40 secretion, MEF cell pool restored with PSEN1 T147A–APH1A. To be noted: PSEN1 T147A (TM2)–APH1A cell pool; N = 3 to 4; mean (95% CI); decimal comma. As to the method:
as §2, §3, §4

The target of test [5] is T5, PSEN1 T147A–APH1A γ-secretase complex (Homo sapiens, UniProt P49768, T147A).
T5 construct: expressed in transfected cells; host or cells: Psen1/2 double KO/Aph1ABC triple KO MEFs, pools without clonal selection
The test is described as above. To be noted: decimal comma. As to the method:
as §2, §3, §4

Take `O=S(=O)(c1ccc(Cl)cc1)N1[C@H]2CC[C@@H]([C@H]1c1ccc(C(F)(F)F)cc1)[C@@H](O)C2` [(+)-9b]: the half-inhibitory concentration (IC50) in test [1] was found to be 1670 nM; in test [2], 6 nM; in test [3], 1.03 µM; in test [4], 0.852 µM.

Regarding `C[C@H](NC(=O)Cc1cc(F)cc(F)c1)C(=O)N[C@H](C(=O)OC(C)(C)C)c1ccccc1` [DAPT], the IC50 in test [5] (PSEN1 T147A (TM2)–APH1A cell pool, N = 3 to 4, mean (95% CI)) came to 0.477 µM. The “IC50 fold change to WT” value in test [5] (PSEN1 T147A–APH1A cell pool) is 2,826 fold.

(Values after PMC10318456, “Selective inhibitors of the PSEN1–gamma-secretase complex” (The Journal of Biological Chemistry, 2023).)
